According to ChEMBL document CHEMBL5352426, “Synthesis and anti-tumor activity of nitrogen-containing derivatives of the natural product diphyllin” (Eur J Med Chem, 2022):
Values after ≈ are worked out from the molar mass of the structure shown. Active and inactive are the calls of the source. The rule behind the calls is not given here.

What was measured:
[1] = Antiproliferative activity against human L02 cells assessed as inhibition of cell proliferation at 1 uM incubated for 72 hrs by SRB assay relative to control; format: toxicity, cell-based
MIA PaCa-2 [2] = experiment: Antiproliferative activity against human MIA PaCa-2 cells assessed as inhibition of cell proliferation at 1 uM incubated for 72 hrs by SRB assay relative to control; format: functional
CFPAC-1 [3] = experiment: Antiproliferative activity against human CFPAC-1 cells assessed as inhibition of cell proliferation at 1 uM incubated for 72 hrs by SRB assay relative to control; format: functional
PaTu 8988t [4] = experiment: Antiproliferative activity against human PaTu 8988t cells assessed as inhibition of cell proliferation at 1 uM incubated for 72 hrs by SRB assay relative to control; format: functional
Panc02 [5] = experiment: Antiproliferative activity against mouse Panc02 cells assessed as inhibition of cell proliferation at 1 uM incubated for 72 hrs by SRB assay relative to control; format: functional
[6] = Antiproliferative activity against human L02 cells assessed as inhibition of cell proliferation incubated for 72 hrs by SRB assay; format: toxicity, cell-based
MIA PaCa-2 [7] = experiment: Antiproliferative activity against human MIA PaCa-2 cells assessed as inhibition of cell proliferation incubated for 72 hrs by SRB assay; format: functional, cell-based; settings: MIA PaCa-2, 72 h
CFPAC-1 [8] = experiment: Antiproliferative activity against human CFPAC-1 cells assessed as inhibition of cell proliferation incubated for 72 hrs by SRB assay; format: functional, cell-based; settings: CFPAC-1, 72 h
PaTu 8988t [9] = experiment: Antiproliferative activity against human PaTu 8988t cells assessed as inhibition of cell proliferation incubated for 72 hrs by SRB assay; format: functional, cell-based
Panc02 [10] = experiment: Antiproliferative activity against mouse Panc02 cells assessed as inhibition of cell proliferation incubated for 72 hrs by SRB assay; format: functional, cell-based; settings: Panc02, 72 h
[11] = Metabolic stability in human liver microsome assessed as half life; format: ADME; settings: liver microsomes
[12] = Metabolic stability in human liver microsome assessed as intrinsic clearance; format: ADME; settings: liver microsomes, read-out: CLH
[13] = Metabolic stability in human liver microsome assessed as hepatic clearance; format: ADME; settings: microsomes
[14] = Metabolic stability in mouse liver microsome assessed as half life; format: ADME; settings: liver microsomes
[15] = Metabolic stability in mouse liver microsome assessed as intrinsic clearance; format: ADME; settings: liver microsomes, read-out: CLH
[16] = Metabolic stability in mouse liver microsome assessed as hepatic clearance; format: ADME; settings: microsomes
[17] = Aqueous solubility of the compound at 1 to 2 mg measured after 24 hrs by HPLC-MS analysis; format: physicochemical; settings: aqueous (not further specified), dose 1-2 mg
CFPAC-1 [18] = experiment: Induction of cell cycle arrest in human CFPAC-1 cells assessed as accumulation at G1 phase at 10 nM incubated for 24 hrs by flow cytometry (reference value: 58.6 %); format: functional
CFPAC-1 [19] = experiment: Induction of cell cycle arrest in human CFPAC-1 cells assessed as accumulation at S phase at 10 nM incubated for 24 hrs by flow cytometry (reference value: 24.5 %); format: functional
CFPAC-1 [20] = experiment: Induction of cell cycle arrest in human CFPAC-1 cells assessed as accumulation at G2 phase at 10 nM incubated for 24 hrs by flow cytometry (reference value: 14.5 %); format: functional
CFPAC-1 [21] = experiment: Induction of cell cycle arrest in human CFPAC-1 cells assessed as accumulation at G1 phase at 100 nM incubated for 24 hrs by flow cytometry (reference value: 58.6 %); format: functional
CFPAC-1 [22] = experiment: Induction of cell cycle arrest in human CFPAC-1 cells assessed as accumulation at S phase at 100 nM incubated for 24 hrs by flow cytometry (reference value: 24.5 %); format: functional
CFPAC-1 [23] = experiment: Induction of cell cycle arrest in human CFPAC-1 cells assessed as accumulation at G2 phase at 100 nM incubated for 24 hrs by flow cytometry (reference value: 14.5 %); format: functional
CFPAC-1 [24] = experiment: Induction of cell cycle arrest in human CFPAC-1 cells assessed as accumulation at G1 phase at 1000 nM incubated for 24 hrs by flow cytometry (reference value: 58.6 %); format: functional
CFPAC-1 [25] = experiment: Induction of cell cycle arrest in human CFPAC-1 cells assessed as accumulation at S phase at 1000 nM incubated for 24 hrs by flow cytometry (reference value: 24.5 %); format: functional
CFPAC-1 [26] = experiment: Induction of cell cycle arrest in human CFPAC-1 cells assessed as accumulation at G2 phase at 1000 nM incubated for 24 hrs by flow cytometry (reference value: 14.5 %); format: functional
CFPAC-1 [27] = experiment: Induction of apoptosis in human CFPAC-1 cells assessed as viable cells at 1 uM incubated for 24 hrs by annexin V-FITC/PI staining based flow cytometry (reference value: 93.5 %); format: functional; settings: read-out: Activity
CFPAC-1 [28] = experiment: Induction of apoptosis in human CFPAC-1 cells assessed as early apoptotic cells at 1 uM incubated for 24 hrs by annexin V-FITC/PI staining based flow cytometry (reference value: 3.04 %); format: functional
CFPAC-1 [29] = experiment: Induction of apoptosis in human CFPAC-1 cells assessed as late apoptotic cells at 1 uM incubated for 24 hrs by annexin V-FITC/PI staining based flow cytometry (reference value: 3.14 %); format: functional
CFPAC-1 [30] = experiment: Induction of apoptosis in human CFPAC-1 cells assessed as necrotic cells at 1 uM incubated for 24 hrs by annexin V-FITC/PI staining based flow cytometry (reference value: 0.37 %); format: functional
CFPAC-1 [31] = experiment: Induction of apoptosis in human CFPAC-1 cells assessed as viable cells at 10 uM incubated for 24 hrs by annexin V-FITC/PI staining based flow cytometry (reference value: 93.5 %); format: functional; settings: read-out: Activity
CFPAC-1 [32] = experiment: Induction of apoptosis in human CFPAC-1 cells assessed as early apoptotic cells at 10 uM incubated for 24 hrs by annexin V-FITC/PI staining based flow cytometry (reference value: 3.04 %); format: functional
CFPAC-1 [33] = experiment: Induction of apoptosis in human CFPAC-1 cells assessed as late apoptotic cells at 10 uM incubated for 24 hrs by annexin V-FITC/PI staining based flow cytometry (reference value: 3.14 %); format: functional
CFPAC-1 [34] = experiment: Induction of apoptosis in human CFPAC-1 cells assessed as necrotic cells at 10 uM incubated for 24 hrs by annexin V-FITC/PI staining based flow cytometry (reference value: 0.37 %); format: functional
CFPAC-1 [35] = experiment: Effect on beclin-1 level in human CFPAC-1 cells at 10 to 1000 nM incubated for 24 hrs by Western blot analysis; format: functional, cell-based; settings: dose 10-1000 nM
CFPAC-1 [36] = experiment: Inhibition of autophagy at later stage in human CFPAC-1 cells assessed as increase in LC3-II/LC3-I ratio at 1 uM incubated for 24 hrs in presence of chloroquine by Western blot analysis; format: functional, cell-based
Panc02 [37] = experiment: Antitumor activity against […] Panc02 cells xenografted in C57BL/6 mouse assessed as tumor growth inhibition at 10 mg/kg, ip administered every two days for 20 days by electronic caliper method relative to control; format: functional; settings: Panc02, 480 h, time 20 day, read-out: TGI
[38] = Toxicity in C57BL/6 mouse xenografted with […] cells assessed as drug tolerance at 10 mg/kg, ip administered every two days for 20 days; format: organism-based; settings: in vivo, 480 h, time 20 day
[39] = Toxicity in C57BL/6 mouse xenografted with […] cells assessed as body weight loss at 10 mg/kg, ip administered every two days for 20 days; format: organism-based; settings: in vivo, 480 h, time 20 day

`COc1cc2c(O)c3c(c(-c4ccc5c(c4)OCO5)c2cc1OC)C(=O)OC3` [DIPHYLLIN] gave an inhibition at 72 h, 1 µM [1] of 17.7%, an inhibition at 1 µM (MIA PaCa-2 [2]) of 70.1% and an inhibition at 1 µM (CFPAC-1 [3]) of 75.4%. The inhibition at 1 µM (PaTu 8988t [4]) was 77.5%, the inhibition at 1 µM (Panc02 [5]) was 83.3% and the IC50 at 72 h [6] was 3320 nM. The IC50 (MIA PaCa-2 [7]) was 271 nM, the IC50 (CFPAC-1 [8]) was 208 nM and the IC50 (PaTu 8988t [9]) was 102 nM. For the same compound, the IC50 (Panc02 [10]) was 61 nM, the half-life [11] was 43.8 min and the microsomal CLint [12] was 31.6 µL/min/mg. The CLH [13] was 13.2 mL/min/kg, the half-life [14] was under 5 min and the microsomal CLint [15] was over 277 µL/min/mg. The CLH [16] was over 83.2 mL/min/kg, the solubility at 24 h [17] was 0.021 µg/mL (≈ 0.0552 µM) and the Activity (CFPAC-1 [18]) was 58.9%. For the same compound, the Activity (CFPAC-1 [19]) was 28.7%, the Activity (CFPAC-1 [20]) was 10.1% and the Activity (CFPAC-1 [21]) was 66.7%. It also gave an Activity (CFPAC-1 [22]) of 20.4%, an Activity (CFPAC-1 [23]) of 10.6% and an Activity (CFPAC-1 [24]) of 81.9%. The Activity (CFPAC-1 [25]) was 8.14%, the Activity (CFPAC-1 [26]) was 7.81% and the viability at 1 µM (CFPAC-1 [27]) was 89.9%. The Activity (CFPAC-1 [28]) was 1.99%, the Activity (CFPAC-1 [29]) was 7.23% and the Activity (CFPAC-1 [30]) was 0.86%. The viability at 10 µM (CFPAC-1 [31]) was 87.8%, the Activity (CFPAC-1 [32]) was 2.1% and the Activity (CFPAC-1 [33]) was 9.53%. For the same compound, the Activity (CFPAC-1 [34]) was 0.58%, the Activity (CFPAC-1 [35]) was “inactive” and the inhibition (CFPAC-1 [36]) was “Active”. The inhibition in vivo at 10 mg/kg (Panc02 [37]) was 22.6%, the Activity [38] was “Non-Toxic” and the Activity [39] was “Non-Toxic”.
